Experiments:
[1] = tested on: S. aureus (MRSA SAP0017) biofilms; test: Static microtitre plate antibiofilm screen (crystal violet); type: cell-based, Staphylococcus aureus; settings: for antibiofilm activity of SPOT-synthesized Experimental Validation Set peptides: highest peptide concentration evaluated, compared to untreated controls, listed from most to least active
Description: The SPOT-synthesized peptides were evaluated for their antibiofilm activity in vitro as described previously. Briefly, 5 μl of SPOT-peptide stock solution or a corresponding serial dilution was placed in a 96-well polypropylene round bottom plate (Corning Inc. Corning, NY) and 95 μl of a 1/100 dilution of an overnight culture of MRSA SAP0017 in TSB supplemented with 1% glucose was added to each well. The plates were incubated overnight at 37 °C to allow for bacterial growth and biofilm maturation. After 24 hours, the media containing planktonic bacteria was rinsed from each well with distilled water and the remaining biomass was stained with 0.1% crystal violet. The unbound dye was rinsed away and the biofilm bound dye was suspended in 70% ethanol and the absorbance at 595 nm was recorded on a plate reader. Percent biofilm inhibition was calculated by comparison to the amount of crystal violet stain in the untreated controls (defined as 100%) and the sterility control wells (defined as 0%). Results from three separate biological replicates were averaged and outliers were identified using the modified Thompson Tau test and removed from the analysis. The antibiofilm activity of all SPOT-derived peptides was assessed at multiple concentrations (up to five 2-fold dilutions from the stock solution) and the peptide concentration yielding the largest difference in percent inhibition of biofilm growth was used in subsequent analysis.

[2] = tested on: planktonic S. aureus MRSA (SAP0017); test: MIC determination, broth microdilution; type: cell-based, Staphylococcus aureus; settings: broth microdilution, ~5 × 10^5 CFU/ml, 37 °C overnight, visual read, mean of three biological replicates; for MIC, MHB: Mueller Hinton Broth; for MIC, TSB with 1% Glucose: Tryptic Soy Broth with 1% glucose
Description: The MIC of the synthesized peptides was determined in both Mueller Hinton Broth (MHB) and Tryptic Soy Broth (TSB) supplemented with 1% glucose, using the broth microdilution method[21] with slight modifications. Briefly, 10 μl of a 10× concentrated peptide stock solution, vancomycin antibiotic, or vehicle control (water) was placed in the bottom of a well in a 96-well polypropylene round bottom plate (Corning Inc. Corning, NY). A bacterial suspension of S. aureus MRSA (SAP0017, clinical isolate kindly provided by Dr. Tony Chow, Vancouver General Hospital) was prepared from an overnight culture to a final cell density of ~5 × 10^5 CFU/ml and 90 μl of this was added to each well.

[3] = tested on: MRSA SAP0017 biofilms grown in flow cells; test: Eradication of pre-formed biofilms in flow cells; type: cell-based, Staphylococcus aureus; settings: BM2 media, SYTO-9/propidium iodide, confocal microscopy
Description: Bacterial biofilms were grown in BM2 media (62 mM potassium phosphate buffer, pH 7, 7 mM (NH4)2SO4, 2 mM MgSO4, 10 μM FeSO4 and 0.4% (wt/vol) glucose) for 48 hours followed by treatment with peptide (2 or 0.125 µM) for an additional 24 hours. The samples were stained with SYTO-9 and propidium iodide fluorescent dyes to image total and dead cells, respectively. Flow-cell images were acquired on an Olympus FluoView FV1000 confocal laser scanning microscope (Olympus Corp. Tokyo, Japan) and were analyzed with the Fiji software package.

[4] = tested on: peripheral blood mononuclear cells (PBMCs); test: Cytotoxicity, LDH release assay; type: cell-based, human; settings: peptide concentrations as high as 40 µM
Description: The cytotoxicity and immunomodulatory activity of both 1018 and 3002 was assessed as described previously. Briefly, peripheral blood mononuclear cells (PBMCs) were collected from healthy volunteers in accordance with the University of British Columbia ethics guidelines. PBMCs were plated in Costar 96-well flat bottom tissue culture treated plates at a final density of 1 × 10^6 cells/ml in RPMI media supplemented with 10% fetal bovine serum. […] Cytotoxicity was assessed using the Cytotoxicity Detection Kit (Roche Diagnostics, Basel, Switzerland) which measures lactate dehydrogenase activity released from damaged cells. Immune modulation was characterized by measuring the production of MCP-1 chemokine by induced by peptide alone as well as the suppression of interleukin (IL)-1β from PBMCs stimulated with 10 ng/ml Pseudomonas aeruginosa PAO1 lipopolysaccharide. Levels of MCP-1 and IL-1β were quantified by enzyme linked immunosorbent assays (ELISAs) using kits from eBioscience Inc. (San Diego, CA).

MRSA USA300 LAC = test: Murine cutaneous abscess model; type: in vivo, CD-1 mice; settings: 14 mg/kg; for reduction of abscess lesion size compared to untreated controls: single intra-abscess injection 1 h after infection, 3 days; for effect on bacterial load recovered from the abscesses: single intra-abscess injection, CFU three days post-infection
Description: The in vivo activity of the identified antibiofilm peptide 3002 and the parental compound 1018 was evaluated using a recently described murine abscess model of chronic MRSA infections. All animal experiments were performed in accordance with The Canadian Council on Animal Care (CCAC) guidelines and were approved by the University of British Columbia Animal Care Committee. Briefly, the fur on the backs of 6-week old female CD-1 mice (Charles River Laboratories, Wilmington, MA) was removed by shaving and subsequent treatment with depilatory cream. MRSA USA300 LAC was grown to an optical density at 600 nm of 1 in tryptic soy broth (TSB) at which point cells were washed twice with sterile PBS and then suspended in PBS to a final cell density of 5 × 10^7 CFU/50 μL. Mice were infected with 50 μL of bacteria subcutaneously on the right flank of the back and 1 hour later, given saline (for controls) or treated with 14 mg/kg peptide (1018 or 3002) via intra-abscess injection. Mice were monitored daily and their weight as well as abscess lesion sizes (measured using a caliper) were recorded every 24 hrs. Visible dermonecrosis or white lesions (filled with pus) were considered as part of the abscess lesion while swelling/inflammation was disregarded in the abscess size measurements. Three days post-infection, abscesses were excised and homogenized using a Bead Ruptor 4 tissue homogenizer (OMNI International, Kennesaw GA) for 5 minutes and serially plated for viable CFU quantification.

[5] = tested on: biofilms formed by P. aeruginosa, Escherichia coli and MRSA; settings: combination with various antimicrobial agents; cited from earlier work
Excerpt: For example, when peptide 1018 was used in combination with various antimicrobial agents, it decreased the amount of drug required to treat biofilms formed by P. aeruginosa, Escherichia coli and MRSA (among others) by up to 64-fold[30]. […] It is likely that such synergistic effects would be conserved with the latest pept ...

[6] = tested on: MCP-1 production from PBMCs; test: MCP-1 chemokine induction by peptide alone (ELISA); type: cell-based, human; settings: highest peptide concentration evaluated (40 µM), compared to 1018; six donors
Description: (§1) The cytotoxicity and immunomodulatory activity of both 1018 and 3002 was assessed as described previously. Briefly, peripheral blood mononuclear cells (PBMCs) were collected from healthy volunteers in accordance with the University of British Columbia ethics guidelines. PBMCs were plated in Costar 96-well flat bottom tissue culture treated plates at a final density of 1 × 10^6 cells/ml in RPMI media supplemented with 10% fetal bovine serum. Both peptides were tested at final concentrations of 40, 20 and 10 µM. Cytotoxicity was assessed using the Cytotoxicity Detection Kit (Roche Diagnostics, Basel, Switzerland) which measures lactate dehydrogenase activity released from damaged cells. Immune modulation was characterized by measuring the production of MCP-1 chemokine by induced by peptide alone as well as the suppression of interleukin (IL)-1β from PBMCs stimulated with 10 ng/ml Pseudomonas aeruginosa PAO1 lipopolysaccharide. Levels of MCP-1 and IL-1β were quantified by enzyme linked immunosorbent assays (ELISAs) using kits from eBioscience Inc. (San Diego, CA).

[7] = tested on: IL-1β production from LPS-stimulated PBMCs; test: Suppression of IL-1β from LPS-stimulated PBMCs (ELISA); type: cell-based, human; settings: PBMCs stimulated with 10 ng/ml P. aeruginosa PAO1 LPS; 10, 20, 40 µM peptide; six donors
Description: as §1

[8] = tested on: S. aureus (MRSA SAP0017) biofilms; test: Static microtitre plate antibiofilm screen (crystal violet); type: cell-based, Staphylococcus aureus

| Substance | percent residual biofilm after treatment with peptide ([1]; SPOT-synthesized peptides (60–70% purity), ~6.25 μM, TSB with 1% glucose, 24 h 37 °C, crystal violet A595, mean of three biological replicates, Fig. 1b matrix) | MIC, MHB [2] | MIC, TSB with 1% Glucose [2] | eradication of 2-day old pre-formed MRSA biofilms ([3]; 0.125 μM peptide for 24 h) | eradication of 2-day old pre-formed MRSA biofilms ([3]; 2 µM peptide for 24 h) | cytotoxicity (LDH release) [4] | reduction of abscess lesion size compared to untreated controls (MRSA USA300 LAC) | effect on bacterial load recovered from the abscesses (MRSA USA300 LAC) | decrease in amount of drug required to treat biofilms in combination with peptide [5] | antibiofilm activity of SPOT-synthesized Experimental Validation Set peptides [1] | MCP-1 production induced by peptide alone [6] | suppression of IL-1β production [7] | concentration effectively inhibiting MRSA biofilm growth (as low as) ([8]; >95% pure peptide, static microtitre plate assay) | enhancement in antibiofilm potency compared to 1018 ([8]; >95% pure peptides, static microtitre plate assay) | residual biofilm growth ([8]; >95% pure peptide, 32 μM) |
| --- | --- | --- | --- | --- | --- | --- | --- | --- | --- | --- | --- | --- | --- | --- | --- |
| VRLIVAVRIWRR-NH2 [compound 1018, synthetic immunomodulatory cationic peptide, 12-residue derivative of bovine bactenecin; parent template, reference compound] | 31% | 4 µM | >64 µM | virtually identical to untreated controls | effectively eradicated | less than 15% | 2.4 fold | neither peptide had any effect | up to 64 fold |  |  |  |  |  |  |
| ILVRWIRWRIQW-NH2 [compound 3002, QSAR–predicted antibiofilm peptide, >95% purity, C-terminally amidated] |  | 2 µM | 4 µM | effectively eradicated | effectively eradicated |  | 2.8 fold | neither peptide had any effect |  | exhibited antibiofilm activity | induced significantly more MCP-1 production | in a concentration dependent manner to similar levels as seen for peptide 1018 | 1 µM | 8 fold |  |
| WKKVQWLKRLLL-NH2 [compound 3003, QSAR–predicted antibiofilm peptide, >95% purity, C-terminally amidated] |  | 4 µM | 16 µM |  |  |  |  |  |  | exhibited antibiofilm activity |  |  |  |  | ~ 40% |

Reference: article PMC5789975, “Computer-aided Discovery of Peptides that Specifically Attack Bacterial Biofilms” (Scientific Reports, 2018)
